Measured values taken from ChEMBL document CHEMBL5052818, “Aminopyrimidine derivatives as ctps1 inhibitors” (2019).

experiment: Inhibition of C-terminal FLAG-His-tagged full length human CTPS1 measured after 60 mins by ADP-Glo assay

SMILES	IC50
O=C(Cc1nc(NS(=O)(=O)C2CC2)ncc1F)Nc1ccc(-c2cccnc2)cc1	> 1000 nM
CC(C)Oc1cncc(-c2ccc(NC(=O)Cc3ccnc(NS(=O)(=O)C4CC4)n3)cc2)n1	≤ 100 nM
CC(C)(C(=O)Nc1ccc(-c2cccc(Cl)c2)cc1)c1ccnc(NS(=O)(=O)C2CC2)n1	> 1000 nM
CC(C)(C(=O)Nc1ccc(-c2cncc(C(F)(F)F)n2)cc1F)c1ccnc(NS(=O)(=O)C2CC2)n1	≤ 100 nM
CCOc1cncc(-c2ccc(NC(=O)C(C)(C)c3ccnc(NS(=O)(=O)C4CC4)n3)c(OC)c2)n1	≤ 100 nM
CC(C)(C(=O)Nc1ccc(-c2cncc(C#N)c2)cc1)c1ccnc(NS(=O)(=O)C2CC2)n1	> 100 nM
CC(C)Oc1cncc(-c2ccc(NC(=O)Cc3ccnc(NS(=O)(=O)C4CC4)n3)c(F)c2)n1	≤ 100 nM
CC(C)(C(=O)Nc1ccc(-c2cccnc2)cc1)c1ccnc(NS(=O)(=O)C2CC2)n1	> 1000 nM
CCC(C(=O)Nc1ccc(-c2cncc(C(F)(F)F)c2)cc1)c1ccnc(NS(=O)(=O)C2CC2)n1 (configuration not stated)	> 100 nM
CCOc1cncc(-c2ccc(NC(=O)C(C)(C)c3ccnc(NS(=O)(=O)C4CCC4)n3)nc2)n1	> 100 nM
CCOc1cncc(-c2cnc(NC(=O)C(C)(C)c3ccnc(NS(=O)(=O)C4CC4)n3)c(F)c2)n1	≤ 100 nM
CCOc1cncc(-c2ccc(NC(=O)C(C)(C)c3ccnc(NS(=O)(=O)C4CC4)n3)c(Cl)c2)n1	≤ 100 nM
CCOc1cncc(-c2cc(C)c(NC(=O)C(C)(C)c3ccnc(NS(=O)(=O)C4CC4)n3)cc2F)n1	> 100 nM
O=C(Cc1ccnc(NS(=O)(=O)C2CC2)n1)Nc1ccc(-c2cncc(C(F)(F)F)n2)cc1	≤ 100 nM
CC(C)(C(=O)Nc1ccc(-c2cncc(F)c2)cc1)c1ccnc(NS(=O)(=O)C2CC2)n1	> 100 nM
CCOc1cncc(-c2ccc(NC(=O)C(CC)(CC)c3ccnc(NS(=O)(=O)C4CC4)n3)cc2)n1	≤ 100 nM
CC(C)(C(=O)Nc1ccc(-c2cccc(C(F)(F)F)c2)cc1)c1ccnc(NS(=O)(=O)C2CC2)n1	> 1000 nM
CC(C)Oc1cncc(-c2ccc(NC(=O)C(C)(C)c3ccnc(NS(=O)(=O)C4CC4)n3)c(F)c2)c1	> 100 nM
O=C(Cc1ccnc(NS(=O)(=O)C2CC2)n1)Nc1ccc(-c2cncc(C(F)(F)F)n2)cc1F	≤ 100 nM
O=C(Cc1ccnc(NS(=O)(=O)C2CC2)n1)Nc1ccc(-c2cncc(OCC(F)(F)F)n2)cc1	≤ 100 nM
CC(C)(C(=O)Nc1ccc(-c2cncc(C(F)(F)F)c2)cc1)c1ccnc(NS(=O)(=O)C2CC2)n1	> 100 nM

SMILES	IC50
CC(C)Oc1cncc(-c2ccc(NC(=O)C(C)(C)c3ccnc(NS(=O)(=O)C4CCC4)n3)c(F)c2)n1	> 100 nM
O=C(Cc1ccnc(NS(=O)(=O)C2CC2)n1)Nc1ccc(-c2cccnc2)cc1	> 100 nM
CC(C)(C(=O)Nc1ccc(-c2cccnc2)cn1)c1ccnc(NS(=O)(=O)C2CC2)n1	> 1000 nM
COc1cncc(-c2ccc(NC(=O)C(C)(C)c3ccnc(NS(=O)(=O)C4CCC4)n3)cc2)n1	> 100 nM
COc1cncc(-c2ccc(NC(=O)Cc3ccnc(NS(=O)(=O)C4CC4)n3)cc2)n1	≤ 100 nM
CCOc1cncc(-c2cc(C)c(NC(=O)C(C)(C)c3ccnc(NS(=O)(=O)C4CC4)n3)cc2C)n1	> 100 nM
CCOc1cncc(-c2ccc(NC(=O)C(C)(C)c3ccnc(NS(=O)(=O)C4CCC4)n3)c(C)c2)n1	> 100 nM
CC(C)Oc1cncc(-c2ccc(NC(=O)C(C)(C)c3ccnc(NS(=O)(=O)C4CC4)n3)c(F)c2)n1	≤ 100 nM
CCOc1cncc(-c2ccc(NC(=O)C(C)(C)c3ccnc(NS(=O)(=O)C4CC4)n3)c(C#N)c2)n1	≤ 100 nM
O=C(Cc1ccnc(NS(=O)(=O)C2CC2)n1)Nc1ccc(-c2ccccc2)cc1	> 1000 nM
CC(C)(C(=O)Nc1ccc(-c2cccc(C#N)c2)cc1)c1ccnc(NS(=O)(=O)C2CC2)n1	> 1000 nM
CCOc1cncc(-c2ccc(NC(=O)C(C)(C)c3ccnc(NS(=O)(=O)C4CC4)n3)c(F)c2)n1	≤ 100 nM
CCOc1cncc(-c2ccc(NC(=O)C(C)(C)c3ccnc(NS(=O)(=O)C4CC4)n3)c(C)c2C)n1	> 100 nM
CC(C)(C(=O)Nc1ccc(-c2cncnc2)cc1)c1ccnc(NS(=O)(=O)C2CC2)n1	> 1000 nM
CC(C)Oc1cncc(-c2ccc(NC(=O)C(C)(C)c3ccnc(NS(=O)(=O)C4CC4)n3)cc2)c1	> 100 nM
O=C(Cc1ccnc(NS(=O)(=O)C2CC2)n1)Nc1ccc(-c2cncc(C(F)(F)F)c2)cc1	> 100 nM
Cc1cncc(-c2ccc(NC(=O)C(C)(C)c3ccnc(NS(=O)(=O)C4CC4)n3)cc2)c1	> 100 nM
CCOc1cncc(-c2cc(F)c(NC(=O)C(C)(C)c3ccnc(NS(=O)(=O)C4CC4)n3)c(F)c2)n1	≤ 100 nM
Cc1cncc(-c2ccc(NC(=O)C(C)(C)c3ccnc(NS(C)(=O)=O)n3)c(C)c2)n1	> 1000 nM
CC(C)Oc1cncc(-c2ccc(NC(=O)C(C)(C)c3ccnc(NS(=O)(=O)C4CC4)n3)nc2)n1	≤ 100 nM
COc1cncc(-c2ccc(NC(=O)C(C)(C)c3ccnc(NS(=O)(=O)C4CC4)n3)cc2)n1	≤ 100 nM

SMILES	IC50
CCOc1cncc(-c2ccc(NC(=O)C(C)(C)c3ccnc(NS(=O)(=O)C4CC4)n3)nc2)n1	≤ 100 nM
CC(C)(C(=O)Nc1ccc(-c2cncc(OC3CC3)n2)cn1)c1ccnc(NS(=O)(=O)C2CC2)n1	≤ 100 nM
CCOc1cncc(-c2ccc(NC(=O)C(C)(C)c3ccnc(NS(=O)(=O)C4CCC4)n3)cc2)n1	> 100 nM
CCOc1cncc(-c2ccc(NC(=O)C3(c4ccnc(NS(=O)(=O)C5CC5)n4)CCCC3)cc2)n1	≤ 100 nM
Cc1cc(-c2cncc(C(F)(F)F)n2)ccc1NC(=O)C(C)(C)c1ccnc(NS(=O)(=O)C2CC2)n1	> 100 nM
CC(C)(C(=O)Nc1ccc(-c2cncc(Cl)c2)cc1)c1ccnc(NS(=O)(=O)C2CC2)n1	> 100 nM
COc1cncc(-c2ccc(NC(=O)C(C)(C)c3ccnc(NS(=O)(=O)C4CC4)n3)cc2)c1	> 100 nM
CCOc1cncc(-c2cc(OC)c(NC(=O)C(C)(C)c3ccnc(NS(=O)(=O)C4CC4)n3)cc2F)n1	> 100 nM
CCOc1cncc(-c2ccc(NC(=O)C(C)(C)c3ccnc(NS(=O)(=O)C4CC4)n3)cc2)c1	> 100 nM
O=C(Cc1ccnc(NS(=O)(=O)C2CC2)n1)Nc1ccc(-c2cncc(OCC(F)(F)F)c2)cc1	> 100 nM
CC(C)(C(=O)Nc1ccc(-c2cncc(C(F)(F)F)n2)cn1)c1ccnc(NS(=O)(=O)C2CC2)n1	≤ 100 nM
CC(C)(C(=O)Nc1ccc(-c2cnccn2)cc1F)c1ccnc(NS(=O)(=O)C2CC2)n1	> 1000 nM
CCOc1cncc(-c2ccc(NC(=O)Cc3ccnc(NS(=O)(=O)C4CC4)n3)cc2)n1	≤ 100 nM
CCOc1cncc(-c2ccc(NC(=O)C(C)(C)c3ccnc(NS(=O)(=O)C4CC4)n3)c(OC(F)(F)F)c2)n1	≤ 100 nM
CCC(C(=O)Nc1ccc(-c2cncc(Cl)c2)cc1)c1ccnc(NS(=O)(=O)C2CC2)n1 (configuration not stated)	> 100 nM
CCC(C(=O)Nc1ccc(-c2cnccn2)cc1F)c1ccnc(NS(=O)(=O)C2CC2)n1 (configuration not stated)	> 100 nM
CCOc1cncc(-c2ccc(NC(=O)C(C)(C)c3ccnc(NS(=O)(=O)C4CC4)n3)nc2)c1	> 100 nM
CCOc1cncc(-c2cc(F)c(NC(=O)C(C)(C)c3ccnc(NS(=O)(=O)C4CC4)n3)cc2C)n1	> 100 nM
CC(C)(C(=O)Nc1ccc(-c2cncc(OC(F)F)c2)cc1)c1ccnc(NS(=O)(=O)C2CC2)n1	≤ 100 nM
CC(C)(C(=O)Nc1ccc(-c2cccnc2)cc1F)c1ccnc(NS(=O)(=O)C2CC2)n1	> 1000 nM
